The results in this text go back to PubChem BioAssay AID1259407 (Chemical Carcinogenesis Research Information System (CCRIS), 2018).

Each structure is given as a SMILES string. Active and inactive are the calls of the source. The rule behind the calls is not given here.

The subject of this series is CCRIS mutagenicity, Ames/micronucleus/aberration tests. The experiment in a line: CCRIS mutagenicity studies.
Where [1] appears, read: Test System: AMES SALMONELLA TYPHIMURIUM, Strain/Indicator: TA98, Metabolic Activation: NONE, Method: STANDARD PLATE.
[2] abbreviates: Test System: AMES SALMONELLA TYPHIMURIUM, Strain/Indicator: TA98, Metabolic Activation: RAT, LIVER, S-9, AROCLOR 1254, Method: STANDARD PLATE.
[3] abbreviates: Test System: AMES SALMONELLA TYPHIMURIUM, Strain/Indicator: TA100, Metabolic Activation: NONE, Method: STANDARD PLATE.
[4] abbreviates: Test System: AMES SALMONELLA TYPHIMURIUM, Strain/Indicator: TA100, Metabolic Activation: RAT, LIVER, S-9, AROCLOR 1254, Method: STANDARD PLATE.
The mark [5] stands for this setting: Test System: AMES SALMONELLA TYPHIMURIUM, Strain/Indicator: TA1535, Metabolic Activation: NONE, Method: STANDARD PLATE.
Setting [6] is: Test System: AMES SALMONELLA TYPHIMURIUM, Strain/Indicator: TA1537, Metabolic Activation: NONE, Method: STANDARD PLATE.
[7] abbreviates: Test System: AMES SALMONELLA TYPHIMURIUM, Strain/Indicator: TA1537, Metabolic Activation: RAT, LIVER, S-9, AROCLOR 1254, Method: STANDARD PLATE.
Where [8] appears, read: Test System: AMES SALMONELLA TYPHIMURIUM, Strain/Indicator: TA1538, Metabolic Activation: NONE, Method: STANDARD PLATE.
Where [9] appears, read: Test System: MOUSE LYMPHOMA, Strain/Indicator: L5178Y (TK+/TK-), Metabolic Activation: NONE, Method: SUSPENSION/PLATE.
Where [10] appears, read: Test System: MOUSE LYMPHOMA, Strain/Indicator: L5178Y (TK+/TK-), Metabolic Activation: RAT, LIVER, S-9, AROCLOR 1254, Method: SUSPENSION/PLATE.
Where [11] appears, read: Test System: AMES SALMONELLA TYPHIMURIUM, Strain/Indicator: TA98, Metabolic Activation: NONE, Method: PREINCUBATION
Setting [12] is: Test System: AMES SALMONELLA TYPHIMURIUM, Strain/Indicator: TA100, Metabolic Activation: NONE, Method: PREINCUBATION

On to `COc1ccc2nc(N)sc2c1`, for which the mutagenic call (Test System: AMES SALMONELLA TYPHIMURIUM, Strain/Indicator: TA98, Metabolic Activation: HAMSTER, LIVER, S-9, AROCLOR 1254, Method: STANDARD PLATE) is “active; positive”; the mutagenic call under setting [1] is “active; positive”; the mutagenic call under setting [2] was “active; positive”; the mutagenic call (Test System: AMES SALMONELLA TYPHIMURIUM, Strain/Indicator: TA100, Metabolic Activation: HAMSTER, LIVER, S-9, AROCLOR 1254, Method: STANDARD PLATE) was “active; positive”; the mutagenic call under setting [3] is “inactive; negative”; the mutagenic call under setting [4] is “active; positive”. Besides, the mutagenic call (Test System: AMES SALMONELLA TYPHIMURIUM, Strain/Indicator: TA1535, Metabolic Activation: HAMSTER, LIVER, S-9, AROCLOR 1254, Method: STANDARD PLATE) is “active; positive”; the mutagenic call under setting [5] was “inactive; negative”; the mutagenic call (Test System: AMES SALMONELLA TYPHIMURIUM, Strain/Indicator: TA1535, Metabolic Activation: RAT, LIVER, S-9, AROCLOR 1254, Method: STANDARD PLATE) was “active; positive”; the mutagenic call (Test System: AMES SALMONELLA TYPHIMURIUM, Strain/Indicator: TA1537, Metabolic Activation: HAMSTER, LIVER, S-9, AROCLOR 1254, Method: STANDARD PLATE) is “active; positive”; the mutagenic call under setting [6] is “inactive; negative”; the mutagenic call under setting [7] was “active; positive”. Besides, the mutagenic call was “active; positive” (Test System: AMES SALMONELLA TYPHIMURIUM, Strain/Indicator: TA1538, Metabolic Activation: HAMSTER, LIVER, S-9, AROCLOR 1254, Method: STANDARD PLATE); “active; positive” under setting [8]; “active; positive” (Test System: AMES SALMONELLA TYPHIMURIUM, Strain/Indicator: TA1538, Metabolic Activation: RAT, LIVER, S-9, AROCLOR 1254, Method: STANDARD PLATE); “inactive; negative. reevaluation of results: negative” under setting [9]; “active; positive. reevaluation of results: positive” under setting [10].

Take `Cc1cc2c(cc1C)-c1ccccc1C2`: the mutagenic call reads like this: under setting [2], “inactive; negative”; under setting [4], “inactive; negative”.

Turning to `CC(=O)c1c(O)cc(O)c2c1C(=O)c1cc(O)cc(O)c1C2=O`, the mutagenic call is “inactive; negative” under setting [1]; “inactive; negative” under setting [2]; “inactive; negative” under setting [3]; “inactive; negative” under setting [4]; “inactive; negative” under setting [7].

In the case of `CC(C)(C)CNC(=O)C=Cc1ccc([N+](=O)[O-])o1`, the mutagenic call under setting [11] is “active; positive”.

For `CC(=O)O[C@H]1[C@H](OC23C=C(C)C4(CC4)C(C)(O)C2C(=O)C(C)(C)C3)O[C@H](CO)[C@@H](OC(=O)/C=C/c2ccc(O)cc2)[C@@H]1O` (stereo partly drawn), the mutagenic call by setting is: under setting [11], “active; positive”; under setting [12], “active; positive”.

Take `Cc1ccc(O)c(N)c1`: the mutagenic call was “inactive; negative” (Test System: AMES SALMONELLA TYPHIMURIUM, Strain/Indicator: TA97, Metabolic Activation: HAMSTER, LIVER, S-9, AROCLOR 1254 (10%), Method: PREINCUBATION); “active; positive” (Test System: AMES SALMONELLA TYPHIMURIUM, Strain/Indicator: TA97, Metabolic Activation: NONE, Method: PREINCUBATION); “inactive; negative” (Test System: AMES SALMONELLA TYPHIMURIUM, Strain/Indicator: TA97, Metabolic Activation: RAT, LIVER, S-9, AROCLOR 1254 (10%), Method: PREINCUBATION); “inactive; negative” (Test System: AMES SALMONELLA TYPHIMURIUM, Strain/Indicator: TA98, Metabolic Activation: HAMSTER LIVER S-9, AROCLOR 1254, Method: STANDARD PLATE); “inactive; negative” (Test System: AMES SALMONELLA TYPHIMURIUM, Strain/Indicator: TA98, Metabolic Activation: HAMSTER, LIVER, S-9, AROCLOR 1254 (10%), Method: PREINCUBATION); “inactive; negative” under setting [11]. For the same compound, the mutagenic call reads like this: under setting [1], “inactive; negative”; (Test System: AMES SALMONELLA TYPHIMURIUM, Strain/Indicator: TA98, Metabolic Activation: RAT LIVER S-9, AROCLOR 1254, Method: STANDARD PLATE) “inactive; negative”; (Test System: AMES SALMONELLA TYPHIMURIUM, Strain/Indicator: TA98, Metabolic Activation: RAT, LIVER, S-9, AROCLOR 1254 (10%), Method: PREINCUBATION) “inactive; negative”; (Test System: AMES SALMONELLA TYPHIMURIUM, Strain/Indicator: TA100, Metabolic Activation: HAMSTER LIVER S-9, AROCLOR 1254, Method: STANDARD PLATE) “inactive; negative”; (Test System: AMES SALMONELLA TYPHIMURIUM, Strain/Indicator: TA100, Metabolic Activation: HAMSTER, LIVER, S-9, AROCLOR 1254 (10%), Method: PREINCUBATION) “active; positive”; under setting [12], “active; positive”. Further, the mutagenic call was “inactive; negative” under setting [3]; “inactive; negative” (Test System: AMES SALMONELLA TYPHIMURIUM, Strain/Indicator: TA100, Metabolic Activation: RAT LIVER S-9, AROCLOR 1254, Method: STANDARD PLATE); “active; positive” (Test System: AMES SALMONELLA TYPHIMURIUM, Strain/Indicator: TA100, Metabolic Activation: RAT, LIVER, S-9, AROCLOR 1254 (10%), Method: PREINCUBATION); “inactive; negative” (Test System: AMES SALMONELLA TYPHIMURIUM, Strain/Indicator: TA1535, Metabolic Activation: HAMSTER LIVER S-9, AROCLOR 1254, Method: STANDARD PLATE); “inactive; negative” (Test System: AMES SALMONELLA TYPHIMURIUM, Strain/Indicator: TA1535, Metabolic Activation: HAMSTER, LIVER, S-9, AROCLOR 1254 (10%), Method: PREINCUBATION); “inactive; negative” (Test System: AMES SALMONELLA TYPHIMURIUM, Strain/Indicator: TA1535, Metabolic Activation: NONE, Method: PREINCUBATION). In addition, the mutagenic call by setting is: under setting [5], “inactive; negative”; (Test System: AMES SALMONELLA TYPHIMURIUM, Strain/Indicator: TA1535, Metabolic Activation: RAT LIVER S-9, AROCLOR 1254, Method: STANDARD PLATE) “inactive; negative”; (Test System: AMES SALMONELLA TYPHIMURIUM, Strain/Indicator: TA1535, Metabolic Activation: RAT, LIVER, S-9, AROCLOR 1254 (10%), Method: PREINCUBATION) “inactive; negative”; (Test System: AMES SALMONELLA TYPHIMURIUM, Strain/Indicator: TA1537, Metabolic Activation: HAMSTER LIVER S-9, AROCLOR 1254, Method: STANDARD PLATE) “inactive; negative”; under setting [6], “inactive; negative”; (Test System: AMES SALMONELLA TYPHIMURIUM, Strain/Indicator: TA1537, Metabolic Activation: RAT LIVER S-9, AROCLOR 1254, Method: STANDARD PLATE) “inactive; negative”. The mutagenic call is “inactive; negative” (Test System: AMES SALMONELLA TYPHIMURIUM, Strain/Indicator: TA1538, Metabolic Activation: HAMSTER LIVER S-9, AROCLOR 1254, Method: STANDARD PLATE); “inactive; negative” under setting [8]; “inactive; negative” (Test System: AMES SALMONELLA TYPHIMURIUM, Strain/Indicator: TA1538, Metabolic Activation: RAT LIVER S-9, AROCLOR 1254, Method: STANDARD PLATE); “active; positive. reevaluation of results: positive” under setting [9]; “active; positive. reevaluation of results: positive” under setting [10].

On to `COc1cc2c(c3ccc4ccccc4c13)CCC2=O`, for which the mutagenic call under setting [4] was “active; positive”.

Turning to `C=C1C[C@@]23CC[C@H]4[C@@](C)(CCC[C@@]4(C)C(=O)O)[C@@H]2CC[C@]1(O[C@@H]1O[C@H](CO)[C@@H](O)[C@H](O)[C@H]1O[C@@H]1O[C@H](CO)[C@@H](O)[C@H](O)[C@H]1O)C3`, the mutagenic call (Test System: AMES SALMONELLA TYPHIMURIUM, Strain/Indicator: TM677, Metabolic Activation: RAT, LIVER, S-9, AROCLOR 1254, Method: PREINCUBATION) is “inactive; negative”.
